Measured values from ChEMBL document CHEMBL1201862, “PubChem BioAssay data set” (2004).
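Results reflect a 48-hour exposure of cells in 96-well plates to compound at five concentrations. GI50 marks 50% less growth.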 Active and inactive are the calls of the source. No stated cut-off is given here; in the data, active = GI50 up to about 1.1 µM and inactive = higher.

Columns and labels:
Assay in all cases: NCI tumour cell line growth inhibition, 48 h
[1] = test system: HOP-62
[2] = test system: NCI-H522
[3] = test system: Malme-3M
[4] = test system: KM12
[5] = test system: SW-620
[6] = test system: SK-MEL-5
[7] = test system: UACC-257
[8] = test system: RPMI-8226
[9] = test system: SK-MEL-28
[10] = test system: MDA-N
[11] = test system: UO-31
[12] = test system: SK-OV-3
[13] = test system: SR
[14] = test system: PC-3
[15] = test system: OVCAR-3
[16] = test system: SF-295
[17] = test system: OVCAR-5
[18] = test system: K562
[19] = test system: SN12C
[20] = test system: HOP-92

Measured: GI50

CC(=O)O[C@H]1CC2C(C3CCC(C(C)CCC(=O)O)[C@]31C)[C@H](OC(C)=O)C[C@@H]1CC3(CC[C@]21C)OOC1(CC[C@]2(C)C4C[C@H](OC(C)=O)[C@]5(C)C(C(C)CCC(=O)O)CCC5C4[C@H](OC(C)=O)C[C@@H]2C1)OO3 (some centres undefined)
inactive: [1] 1.83 µM | [2] 1.42 µM | [3] 1.52 µM | [4] 1.31 µM | [5] 3.46 µM | [6] 1.55 µM | [7] 2.15 µM | [8] 2.76 µM | [9] 4.09 µM | [10] 2.31 µM | [11] 1.74 µM | [12] 4.08 µM | [13] 3.3 µM | [14] 1.69 µM | [15] 1.8 µM | [16] 1.77 µM | [17] 1.78 µM | [18] 2.44 µM | [19] 2.42 µM

CC(=O)Oc1cc2oc(=O)cc(C)c2cc1OC(C)=O
inactive: [1] 51.8 µM | [3] 28.5 µM | [4] 68.7 µM | [5] 46.2 µM | [6] > 100 µM | [7] 48.9 µM | [8] 45.7 µM | [9] 53.1 µM | [10] > 100 µM | [11] 24.6 µM | [12] > 100 µM | [13] 39.6 µM | [14] 84.9 µM | [15] 33.1 µM | [16] 41.8 µM | [17] > 100 µM | [18] 55.7 µM | [19] 48.1 µM

C=C[C@H]1CC[C@H]2[C@@H]3CC=C4C[C@@H](OC5OCC(O)C(O)C5O)CC[C@]4(C)[C@H]3CC[C@]12C (some centres undefined)
inactive: [1] 18 µM | [2] 11.4 µM | [20] 1.97 µM | [4] 12.9 µM | [5] 17.7 µM | [6] 18.2 µM | [7] 82.8 µM | [8] 81.7 µM | [10] 17.6 µM | [11] 13.3 µM | [12] 12.9 µM | [13] 14.7 µM | [14] 14.3 µM | [15] 11.9 µM | [16] 15.2 µM | [17] 11.7 µM | [18] 25.8 µM | [19] 15.7 µM

CC(=O)n1[nH]c(=O)n(-c2ccc(Cl)cc2)c1=O
inactive: [1] > 100 µM | [2] > 100 µM | [3] 45.9 µM | [4] > 100 µM | [5] > 100 µM | [6] > 100 µM | [7] > 100 µM | [8] > 100 µM | [9] > 100 µM | [10] > 100 µM | [11] > 100 µM | [12] > 100 µM | [13] > 100 µM | [14] > 100 µM | [15] > 100 µM | [16] > 100 µM | [17] > 100 µM | [18] > 100 µM | [19] > 100 µM

CC1(C)OC(=O)N(c2ccccc2)C12C=Cc1cc([N+](=O)[O-])ccc1O2 (centres undefined)
inactive: [1] 32.1 µM | [2] 25.8 µM | [20] 20.2 µM | [4] 56.6 µM | [5] 65.6 µM | [6] 36.4 µM | [7] 23.5 µM | [8] 48.5 µM | [9] 83.8 µM | [10] 22.6 µM | [11] 25.1 µM | [12] 28.9 µM | [13] 19.6 µM | [14] 22.7 µM | [15] 21.7 µM | [16] 37.5 µM | [17] 26.9 µM | [18] 29 µM | [19] 56.5 µM

CCOc1ccc(/N=N/C2C(=O)N(C(=O)CC(=O)Nc3ccc(C)cc3)N=C2C)cc1 (centres undefined)
inactive: [1] 16 µM | [3] 47.5 µM | [20] 16.7 µM | [4] 8.47 µM | [5] 21.6 µM | [6] 72.3 µM | [7] > 100 µM | [9] 30.8 µM | [10] 2.7 µM | [11] 29.4 µM | [13] 14 µM | [14] > 100 µM | [15] 20.6 µM | [16] 21.2 µM | [17] > 100 µM | [19] 35.2 µM

CC1(C)CC[C@]2(C(=O)O)CC[C@]3(C)C(=CC[C@@H]4[C@@]5(C)CC[C@@H]6OC(C)(C)OC[C@@]6(C)[C@@H]5CC[C@]43C)[C@H]2C1
inactive: [1] 10.1 µM | [2] 7.71 µM | [3] 12.6 µM | [5] 14.5 µM | [7] 13.2 µM | [8] 6 µM | [9] 14.4 µM | [10] 13.3 µM | [11] 12.1 µM | [12] 17.1 µM | [13] 10.1 µM | [14] 5.4 µM | [15] 4.54 µM | [16] 5.18 µM | [17] 16.8 µM | [18] 14.9 µM | [19] 3.13 µM

O=C(Cn1c(=O)oc2ccccc21)N(c1ccccc1)c1ccccc1
inactive: [1] > 100 µM | [3] 3.39 µM | [4] > 100 µM | [5] > 100 µM | [6] > 100 µM | [7] > 100 µM | [8] > 100 µM | [9] > 100 µM | [10] > 100 µM | [11] > 100 µM | [12] > 100 µM | [13] > 100 µM | [14] > 100 µM | [15] > 100 µM | [16] > 100 µM | [17] > 100 µM | [18] > 100 µM | [19] > 100 µM

N/C(=N\c1ccc(Cl)cc1)NS(=O)(=O)c1cc(Cl)c(Oc2ccc([N+](=O)[O-])cc2Cl)c(Cl)c1
inactive: [2] > 100 µM | [3] > 100 µM | [20] 17.2 µM | [4] 17.8 µM | [5] 20 µM | [6] 16.6 µM | [7] 16.6 µM | [9] 16.9 µM | [10] 18.2 µM | [11] 18.8 µM | [12] 17.4 µM | [13] 18.9 µM | [14] 16.2 µM | [15] 16.8 µM | [16] 17.4 µM | [17] 19.7 µM | [18] 18.7 µM | [19] 17.5 µM

COc1cc(C2SCC(=O)N2c2ccccc2Cl)cc(OC)c1OC (centres undefined)
inactive: [2] 65.8 µM | [20] > 100 µM | [4] 47.2 µM | [5] > 100 µM | [6] 92 µM | [7] > 100 µM | [8] 90.2 µM | [9] > 100 µM | [10] 19.4 µM | [11] > 100 µM | [12] > 100 µM | [13] 43.1 µM | [14] > 100 µM | [15] > 100 µM | [16] > 100 µM | [17] > 100 µM | [18] > 100 µM | [19] > 100 µM

CCC(C)[C@@H](NCc1ccccc1)[C@H](OCc1ccccc1)[C@@H]1COC(C)(C)O1 (some centres undefined)
inactive: [1] 32.2 µM | [3] 18.4 µM | [20] 10.4 µM | [4] 18.8 µM | [5] 18 µM | [6] 12.8 µM | [7] 18.7 µM | [8] 15.8 µM | [9] 24.8 µM | [10] 32.1 µM | [11] 17.3 µM | [12] 30.5 µM | [13] 26.1 µM | [14] 28.6 µM | [15] 28.7 µM | [16] 21 µM | [17] 26.1 µM | [18] 20.3 µM | [19] 22.6 µM

O=C1CCCC2=C1CC1=C(CCCC1=O)N2c1ccc(Cl)cc1
inactive: [1] > 100 µM | [3] > 100 µM | [4] > 100 µM | [5] > 100 µM | [6] > 100 µM | [7] > 100 µM | [8] > 100 µM | [9] > 100 µM | [10] > 100 µM | [11] > 100 µM | [12] > 100 µM | [13] 50.1 µM | [14] > 100 µM | [15] > 100 µM | [16] > 100 µM | [17] > 100 µM | [18] > 100 µM | [19] > 100 µM

Cc1ccc(NC(=O)c2cccc(OP(=O)(Nc3ccc(C)cc3)Nc3ccc(C)cc3)c2)cc1
inactive: [1] 28.7 µM | [2] 2.78 µM | [3] 4.83 µM | [20] 3.23 µM | [4] 5.5 µM | [5] 8.18 µM | [6] 13.2 µM | [7] 11.9 µM | [9] 29.9 µM | [10] 3.78 µM | [11] 4.53 µM | [12] 24.9 µM | [13] 3.4 µM | [14] 7.78 µM | [15] 5.83 µM | [16] 7.13 µM | [17] 38.5 µM | [18] > 100 µM | [19] 16.3 µM

Cc1cccc(CNNC(=O)c2cc[n+]([BH2-]C#N)cc2)c1
inactive: [1] 38 µM | [3] 15 µM | [20] 4.47 µM | [4] 22.6 µM | [5] 34 µM | [6] 17.2 µM | [7] 37.6 µM | [8] 24.8 µM | [9] 6.67 µM | [10] 29.2 µM | [11] 48.1 µM | [12] 43.6 µM | [13] 32.3 µM | [14] 31.6 µM | [15] 32.1 µM | [16] 36.1 µM | [17] 37.5 µM | [18] 26.9 µM
